Broadly, the Ki is the dissociation constant of the complex between target and ligand, obtained from inhibition or displacement.

Experimental findings from US20020183290A1, “Adrenergic receptor antagonists selective for both alpha1A-and alpha1D-subtypes and uses therefor” (Recordati S.A., Chemical and Pharmaceutical Company, priority 2001, published 2002) are described below.

Assay [1] has as its system conscious rats with partial urethral obstruction. In words: Cystometry in conscious rats obstructed by partial urethra ligature (unstable-bladder contractions). The format is in vivo, rat. As to conditions: for inhibition in vivo at 0.1 mg/kg / inhibition in vivo at 0.3 mg/kg / inhibition in vivo at 1 mg/kg: 2 min; for Amplitude of non-effective micturition contractions, After Treat. / Frequency (number) of non-effective micturition contractions, After Treat.: after treatment; for Activity as inhibitors of unstable-bladder contractions (in words): obstructed conscious rats, summary of Tables 1 and 2. The text has this:
A useful animal model system for measuring such pharmacological activity is, without limitation, cystometry in conscious rats with partial bladder-neck obstruction. […] This model is reported in the literature as related to LUTS occurring in patients having obstructive urethral syndromes (Michel, 2000, Drugs of Today. 386 (Supp. B2): 3-6)
In order to obtain a partial obstruction of the urethra, the method previously reported by Malgren (Nalgren et al., 1987, J. Urol. 137:1291-1294; 1988, Neurourol. Urodyn. 6:371), was followed with minor modifications (Guarneri et al., 1991, Pharmacol. Res. 24:263).
Female rats of the Sprague-Dawley strain [Crl:CD(SD)BR, from Charles River Italia, Calco, Como, Italy] weighing 225-275 g were used. The animals were maintained in constant temperature and humidity conditions, on a forced 12-hour light-dark cycle and with food and water ad libitum for at least one week before the experiment.
After being anaesthetized with 3 ml/kg i.p. equitensin (pentobarbital 1.215 g, chloral hydrate 5.312 g, magnesium sulphate 2.657 g, ethanol 12.5 ml, propylene glycol 49.5 ml, distilled water to 125 ml of final volume), the rats were placed in a supine position and the bladder and urethra were exposed via an incision in the shaven abdomens and gently pulling away the muscle portion. The urethra was cannulated with a polyethylene tube with an outside diameter of 1.22 mm, and the urinary bladder was then emptied and, via the cannula introduced through the urethra, filled with physiological saline. A silk (Ethicon 3/0) ligature was placed around the urethra with the cannula inside and the intraurethral cannula was then removed. The abdominal incision was sutured and, immediately after the operative procedure, antibiotic medication (penicillin G 200 000 I.U./kg i.p. and streptomycin 260 mg/kg i.p.) was performed.
Three weeks after the procedure for partially obstructing the urethra, the animals were prepared for cystometry by surgical insertion into the bladder of a catheter, through which the bladder was gradually filled.
The rats, anaesthetised with equitensin 3 ml/kg i.p., were placed in a supine position and, via an incision of about 10 mm in the abdominal wall, the urinary bladder was exposed and gently freed from surrounding tissues.
The urinary bladder was emptied manually and cannulated, via a small incision at the bladder top, with a polyethylene cannula (type PE-50, 0.58 mm I.D. ×0.96 mm O.D.), which was permanently secured to the bladder with silk thread.
The cannula was exposed through a subcutaneous tunnel in the retroscapular area, where it was fastened with a plastic adapter, in order to avoid the risk of removal by the animal. After washing the urinary bladder with physiological saline, the catheter was sealed using a small flame and the abdominal incision was sutured.
To allow evaluation of the effect of a test compound after intravenous administration, the jugular vein was cannulated with a polyethylene cannula (type PE-50, 0.58 mm I.D.×0.96 mm O.D.) filled with heparinised physiological saline. As for the bladder catheter, this cannula, too, was exteriorised, secured and sealed in the retroscapular area.
Two days after the operation, the rats, fasted overnight, were placed in Bollman's cages or in Bollman's cages modified so as to have an opening in the bottom to allow collection of urinated fluid.
After an adaptation period of 20 minutes, the free end of the bladder cannula was connected to a pressure transducer and a special apparatus which allowed infusion into the urinary bladder of physiological saline at 37° C. at a constant rate of 10 ml/hour. Intravesical pressure changes caused by bladder filling were recorded by the pressure transducer which was connected to a recording polygraph.
From the cystometrograms, the frequency and mean amplitude of spontaneous bladder contractions not inducing micturition, termed “unstable-bladder contractions” (UBC), within 2 minutes prior to micturition were evaluated. […]

Assay [2] addresses T1, cloned α1b-adrenoceptor subtype (Homo sapiens, UniProt P35368).
T1 construct: expressed in transfected cells
T1 sequence (P35368 1-520): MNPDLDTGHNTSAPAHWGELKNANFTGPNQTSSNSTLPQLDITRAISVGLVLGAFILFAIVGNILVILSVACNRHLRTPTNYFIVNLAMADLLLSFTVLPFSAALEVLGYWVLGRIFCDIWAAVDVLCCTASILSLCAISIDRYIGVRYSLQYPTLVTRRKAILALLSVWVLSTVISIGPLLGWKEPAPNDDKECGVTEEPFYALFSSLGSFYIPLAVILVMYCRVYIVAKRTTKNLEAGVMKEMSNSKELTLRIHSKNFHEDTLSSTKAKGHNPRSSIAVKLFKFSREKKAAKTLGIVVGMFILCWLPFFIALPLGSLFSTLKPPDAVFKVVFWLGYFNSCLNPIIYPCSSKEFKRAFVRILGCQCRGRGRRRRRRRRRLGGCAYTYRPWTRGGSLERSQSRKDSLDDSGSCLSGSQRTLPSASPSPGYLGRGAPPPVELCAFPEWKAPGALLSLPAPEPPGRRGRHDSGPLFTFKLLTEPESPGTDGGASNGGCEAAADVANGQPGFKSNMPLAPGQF
In words: Radioligand binding assay ([3H]prazosin), cloned α1b-adrenoceptor subtype. To be noted: read-out: Binding Affinity (Ki nM) α1b. The procedure:
(§1) Springer-Verlag, pp. 10-12). […] The results from these assays are used to calculate a measure of receptor selectivity, expressed as the ratio of affinities (Ki) for a given pair of receptors.
(§2) Determination of affinity for cloned subtypes of α1-adrenoceptor subtypes was performed in membranes from cells transfected by electroporation with DNA expressing the genes encoding each α1-adrenoceptor subtype.
(§3) Non-specific binding was determined in the presence of 10 μM phentolamine. Incubation was stopped by addition of ice-cold Tris buffer and rapid filtration through 0.2% polyethyleneimine-pretreated Schleicher & Schuell GF52 filters. […] Data were expressed as mean Ki.

Assay [3] deals with T2, cloned α1d-adrenoceptor subtype (Homo sapiens, UniProt P25100).
T2 construct: expressed in transfected cells
T2 sequence (P25100 1-572): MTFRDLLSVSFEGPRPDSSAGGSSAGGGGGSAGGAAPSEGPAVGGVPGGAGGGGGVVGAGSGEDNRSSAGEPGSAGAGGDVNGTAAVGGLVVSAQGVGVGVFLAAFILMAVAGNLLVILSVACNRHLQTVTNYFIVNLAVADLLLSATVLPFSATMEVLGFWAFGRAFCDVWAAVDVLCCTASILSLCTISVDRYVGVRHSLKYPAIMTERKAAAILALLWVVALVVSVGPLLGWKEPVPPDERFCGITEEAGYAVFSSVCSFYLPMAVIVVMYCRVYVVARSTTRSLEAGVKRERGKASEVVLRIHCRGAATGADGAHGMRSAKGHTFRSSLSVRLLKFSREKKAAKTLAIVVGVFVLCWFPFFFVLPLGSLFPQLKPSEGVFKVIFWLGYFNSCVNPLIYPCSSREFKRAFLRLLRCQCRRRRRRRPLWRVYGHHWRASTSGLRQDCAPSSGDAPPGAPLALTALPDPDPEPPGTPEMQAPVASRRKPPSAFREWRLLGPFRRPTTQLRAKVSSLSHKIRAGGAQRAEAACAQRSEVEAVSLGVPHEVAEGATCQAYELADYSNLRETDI
In words: Radioligand binding assay ([3H]prazosin), cloned α1d-adrenoceptor subtype. As to conditions: read-out: Binding Affinity (Ki nM) α1d. The procedure:
as §1, §2, §3

The mark [4] stands for this setting: obstructed rat, 0.1 mg/kg, 2 minutes before micturition, read-out: % inhibition of amplitude of non-effective micturition contractions.
[5] abbreviates: obstructed rat, 0.1 mg/kg, 2 minutes before micturition, read-out: % inhibition of frequency of non-effective micturition contractions.
The mark [6] stands for this setting: obstructed rat, 0.3 mg/kg, 2 minutes before micturition, read-out: % inhibition of amplitude of non-effective micturition contractions.
Setting [7] is: obstructed rat, 0.3 mg/kg, 2 minutes before micturition, read-out: % inhibition of frequency of non-effective micturition contractions.
The mark [8] stands for this setting: obstructed rat, 2 minutes before micturition, read-out: % inhibition of amplitude of non-effective micturition contractions.
[9] abbreviates: obstructed rat, 2 minutes before micturition, read-out: % inhibition of frequency of non-effective micturition contractions.
[10] abbreviates: Rattus norvegicus, read-out: % inhibition of amplitude of non-effective micturition contractions.
Setting [11] is: Rattus norvegicus, read-out: % inhibition of frequency of non-effective micturition contractions.

Structures are written as SMILES. Where two headings read alike, the source gives them in different places.

As for `COc1cc2nc(N3CCN(C(=O)C4CCCO4)CC3)nc(N)c2cc1OC` (centres unmarked) [Terazosin, terazosin], the values for the inhibition in vivo at 0.1 mg/kg in assay [1] (setting [4]) and in assay [1] (setting [5]) were 31% and 30%, respectively. Also, the inhibition in vivo at 0.3 mg/kg in assay [1] (setting [6]) worked out at 64%; in assay [1] (setting [7]), 65%. Also, the inhibition in vivo at 1 mg/kg amounted to 86% in assay [1] (setting [8]) and 93% in assay [1] (setting [9]). The “Amplitude of non-effective micturition contractions, After Treat.” value in assay [1] (0.1 mg/kg) was determined as 6.6 ± 0.7 mmHg; in assay [1] (0.3 mg/kg) it was 3.7 ± 1.1 mmHg; in assay [1] (1.0 mg/kg), 0.8 ± 0.8 mmHg. For the same compound, the figures for the “Frequency (number) of non-effective micturition contractions, After Treat.” value in assay [1] (0.1 mg/kg), in assay [1] (0.3 mg/kg) and in assay [1] (1.0 mg/kg) were 4.0 ± 0.3, 1.9 ± 0.5 and 0.3 ± 0.3, respectively. Besides, the “Activity as inhibitors of unstable-bladder contractions (in words)” value (“Activity as inhibitors” below) in assay [1] is “marked and dose-dependent reduction”.
Regarding `COc1ccccc1N1CCN(CCCNC(=O)c2csc3c(=O)cc(C(F)(F)F)oc23)CC1` [Compound A, N-{3-[4-(2-methoxyphenyl)-1-piperazinyl]propyl}-7-keto-5-trifluoromethyl-7H-thieno [3,2-b]pyran-3-carboxamide], in assay [1] (setting [7]), the inhibition in vivo at 0.3 mg/kg was determined as 44%. For the same compound, the inhibition in vivo at 1 mg/kg in assay [1] (setting [9]) is 67%.
For the compound `CCOc1ccccc1OCCN[C@H](C)Cc1ccc(OC)c(S(N)(=O)=O)c1` [Tamsulosin, tamsulosin], the Ki was 0.94 nM in assay [2] and 0.16 nM in assay [3] (cloned receptor, cell membranes, 0.2 nM [3H]prazosin, mean Ki). Moreover, the inhibition in vivo at 0.1 mg/kg in assay [1] (setting [4]) amounted to 52%; in assay [1] (setting [5]) it was 61%. Further, in assay [1] (0.1 mg/kg), the “Amplitude of non-effective micturition contractions, After Treat.” value was determined as 3.7 ± 1.1 mmHg. For the same compound, in assay [1] (0.1 mg/kg), the “Frequency (number) of non-effective micturition contractions, After Treat.” value was found to be 1.9 ± 0.7. In assay [1], the “Activity as inhibitors” value was “very potent”.
Take `O=C1CC2(CCCC2)CCN1CCN1CCN(c2cc(Cl)ccc2Cl)CC1` [Rec 26D/073]: the Ki turned out to be 11 nM in assay [2] and 0.11 nM in assay [3]. Further, the figures for the inhibition in vivo at 0.3 mg/kg in assay [1] (setting [6]) and in assay [1] (setting [7]) were 16% and 31%, respectively. The figures for the inhibition in vivo at 1 mg/kg in assay [1] (setting [8]) and in assay [1] (setting [9]) were 18% and 25%, respectively. Besides, the “Amplitude of non-effective micturition contractions, After Treat.” value turned out to be 6.2 ± 1.6 mmHg in assay [1] (0.3 mg/kg) and 7.5 ± 1.2 mmHg in assay [1] (1.0 mg/kg). In addition, the results for the “Frequency (number) of non-effective micturition contractions, After Treat.” value in assay [1] (0.3 mg/kg) and in assay [1] (1.0 mg/kg) were 2.8 ± 0.7 and 4.4 ± 0.7, respectively. In assay [1], the “Activity as inhibitors” value was “poorly active”.
Turning to `O=C1CC2(CCCC2)CC(=O)N1CCN1CCN(c2cc(Cl)ccc2Cl)CC1` [Rec 26D/038], the Ki in assay [2] was determined as 19 nM; in assay [3], 0.13 nM. Besides, the inhibition in vivo at 0.3 mg/kg in assay [1] (setting [6]) turned out to be 39%; in assay [1] (setting [7]), 38%. Also, the inhibition in vivo at 1 mg/kg was 21% in assay [1] (setting [8]) and 27% in assay [1] (setting [9]). Further, the “Amplitude of non-effective micturition contractions, After Treat.” value in assay [1] (0.3 mg/kg) amounted to 6.6 ± 1.5 mmHg; in assay [1] (1.0 mg/kg) it was 7.5 ± 1.6 mmHg. For the same compound, the “Frequency (number) of non-effective micturition contractions, After Treat.” value in assay [1] (0.3 mg/kg) stood at 3.6 ± 0.7; in assay [1] (1.0 mg/kg), 4.5 ± 1.2. Further, the “Activity as inhibitors” value in assay [1] was “poorly active”.
On to `COc1cc2nc(N3CCN(C(=O)c4ccco4)CC3)nc(N)c2cc1OC` [Prazosin, prazosin], for which, in assay [1] (setting [10]), the inhibition in vivo at 0.1 mg/kg is 63% and the inhibition in vivo at 0.3 mg/kg amounted to 87%. In assay [1] (setting [11]), the inhibition in vivo at 0.1 mg/kg turned out to be 48% and the inhibition in vivo at 0.3 mg/kg amounted to 74%. In assay [1] (0.1 mg/kg), the “Amplitude of non-effective micturition contractions, After Treat.” value worked out at 3.1 ± 0.9 mmHg and the “Frequency (number) of non-effective micturition contractions, After Treat.” value is recorded as 2.8 ± 0.8. In addition, in assay [1] (0.3 mg/kg), the “Amplitude of non-effective micturition contractions, After Treat.” value turned out to be 2.1 ± 1.5 mmHg and the “Frequency (number) of non-effective micturition contractions, After Treat.” value was 2.3 ± 1.1. Moreover, the “Activity as inhibitors” value in assay [1] is “marked and dose-dependent reduction”.
